Reference: patent US20100087534A1, “Use of a Photosensitizing Agent in the Treatment or Prevention of an Inflammation-Associated Disorder in the Gastrointestinal Tract of a Mammal” (priority 2005, published 2010)

Experiments:
[1] = test system: SCID mice with TH1-mediated Crohn-like colitis after transfer of CD4+CD45RBhigh T-cells; assay: Histological analysis of colon after low dose PDT in transfer colitis (Example 2); assay type: in vivo
Experimental: Evolution of colitis in SCID mice was monitored every week by colonoscopic investigation after induction. Mice with moderately inflamed colons [endoscopic index of colitis severity (EICS) index 4-8] or marked inflamed colons (EICS 9-13) were randomly assigned to either a <<low dose>> PDT group or no treatment group (disease control group). Unmanipulated age-matched SCID mice served as negative controls.
PDT was performed with a photosensitizing agent (δ-ALA) dose of 15 mg/kg, administered 3 hours before the illumination with the energy dose of 10 J/cm^2 per gastrointestinal tract tissue.
The illumination time was 100 s, the wavelength 635 nm.
Mice were monitored by colonoscopy at day 3 and weeks 1, 2, 3 and 4 post PDT treatment. In addition to parameters investigated in example 1, CD4 immunostaining and apoptosis detection were performed.

TNF-α = assay: Expression index of TNF-α mRNA in illuminated colon, quantitative real-time PCR; assay type: in vivo, BALB/c mice
Text: (§1) The third portion was used for measuring the expression of the molecules involved in immune and inflammatory phenomenons in the colonic mucosa (cytokines, chemokines). For RNA extraction this portion was conserved in RNA-later solution (Ambion Inc. Austin, USA) until processing. RNA was extracted from the tissues using a Rneasy Mini kit (Qiagen, Hombrechtikon, Switzerland). RNA samples were submitted to a second or third DNAse treatment in order to get rid of all traces of genomic DNA. Quality of the RNA samples was tested on agarose gels and absence of genomic DNA was tested by PCR using primers specific for a house keeping gene, glyceraldehydes-3-phosphate-dehydrogenase (GAPDH). RNA preparations were then submitted to reverse transcription using the ThermoScript™ RT-PCR system (Invitrogen, Basel, Switzerland) using an Oligo-dT as primer. Quantification of reverse transcripted messenger RNA for GAPDH, the inducible nitric oxide synthetase (iNOS), interferon-gamma (IFN-γ), interleukin-1 receptor antagonist (IL1-Ra), tumor necrosis factor alpha (TNF-α), interleukin 6 (IL-6), tumor growth factor beta (TGF-13) and interleukin10 (IL-10) was performed by quantitative real-time PCR in a BioRad Real-time PCR iCycler using specific pairs of primers and the green fluorescence dye SYBR—Green®. GAPDH was used to normalize quantifications within each individual sample (normalization of the number of mRNA copies for the gene of interest/1 million mRNA copies of the GAPDH gene of the investigated mouse). Expression of each gene of interest was finally calculated as an expression index (normalized number of mRNA copies of each manipulated mice/normalized number of mRNA copies of the unmanipulated mice) and the results are given as mean values of the expression index (unmanipulated mean mice index=1). Furthermore one kidney and a part of the liver were collected for pathological analysis to exclude hepato- or nephrotoxicity.

[2] = test system: SCID mice with colitis induced by transfer of CD4+CD45RBhigh T-cells; assay: PDT in CD4+CD45RBhigh transfer colitis, clinical and endoscopic follow-up (Example 1); assay type: in vivo
Experimental: b) A rigid mini-endoscope Hopkins I (vision direct 0°, length 10 cm, diameter 1.9 mm, Anklin, Binningen, Switzerland) with a 9 Charrière (Ch) tube and a channel for instrumentation (Flexible biopsy forceps Ch 3, 53 cm length) coupled on the Coloview Basic equipment (light source Xenon 175 and Endovision Telecam SLB; Storz Inc, Tuttlingen, Germany) and the home made air inflation system (see above). […] First the colonoscopy technique was optimised in 10 wild type BALB/c mice and 10 SCID mice, which were colonoscoped repeatedly (3 times within a 2 weeks time period). Afterwards the accuracy of colonoscopy in diagnosis colitis was evaluated in BALB/c mice with sodium dextran sulfate (DSS) induced colitis and in SCID mice with colitis induced by transfer of a subpopulation of CD4+CD45RBhigh T-cells. For this purpose the mice were colonoscoped at diverse time points after onset of DSS administration or T-cell transfer and the endosocpic image was compared with the endoscopic image of normal mice and the histology after sacrificing the mice.
To induce CD4+ CD45RBhigh transfer colitis, T cells used for the adoptive transfer of the SCID mice were obtained from the spleens of six weeks old wild type BALB/c mice that were housed under specific pathogen-free (SPF) conditions at our animal care facility. Mice were sacrificed by cervical dislocation under anesthesia and spleen were recovered and kept in cold RPMI 1640 medium complemented with a final concentration of 2% fetal calf serum (FCS) until processing. The tissue was forced through 70 μm and 40 μm nylon meshes and washed. Spleen cells were then centrifugated and the pellet was resuspended in 5 ml of cold medium for counting. The cellular preparation was then enriched in CD4+ cells by magnetic cell sorting using CD4 (L3T4) MACS microbeads (Miltenyi Biotec, Gladbach, Germany). The enriched cells were then stained using fluorescein isothiocynate (FITC)-conjugated anti-CD4 and phyoerythrin (PE)—conjugated anti-CD45RB monoclonal antibodies (BD, Biosciences Pharmingen, San Diego, USA). CD4+CD45RB high cells were sorted by FACS, resuspended in PBS at the concentration of 10^6 cells/ml and finally 10^5 cells were injected intravenously under sterile conditions into 4-6 weeks old SCID mice.
Colonoscopy could safely be performed in normal BALB/c mice and SCID mice. The mouse colon could be intubated up to the right flexure. The length of the accessible mouse colon was approximately 4 cm with the rectum comprised. In DSS induced colitis a correlation between colitis and weight loss was observed, whereas in SCID mice with colitis after CD4+CD45RB^high T-cell transfer, endoscopic signs of colitis developed earlier as weight loss and the correlation between endoscopic signs of colitis and weight loss was less good. The colitis in DSS mice was segmental, the rectum was always spared, erythema, ulcerations, changes of the normal vascular pattern could be observed. […] Furthermore, since the length of the accessible mouse colon was only about 4 cm, they changed their scoring system concerning the length.

IFN-γ = assay: Expression index of IFN-γ mRNA in illuminated colon, quantitative real-time PCR; assay type: in vivo, BALB/c mice
Text: as §1

[3] = high dose PDT: 50 J/cm^2, 60 mg δ-ALA, 74 h, unmanipulated mice index=1
[4] = low dose PDT 15 mg/kg δ-ALA, 10 J/cm2
[5] = low dose PDT 5J/cm2, 15 mg/kg δ-ALA
[6] = of the 4 mice which developed signs of severe disease

NCC(=O)CCC(=O)O [δ-ALA, 5-aminolevulinic acid]
histology of illuminated portion of colon ([1]; PDT-treated mice, illuminated portion): a normal mucosa with low cellular infiltration | histological score of inflammation ([1]; marked inflamed mice, 3 days after PDT, DC mice 7.7±0.6, P=0.0250): 4.6±0.8 | expression index TNF-α (TNF-α; [3]): 5.19±0.93 | expression index TNF α (TNF-α; [4]): 1.16±0.21 | expression index TNF α (TNF-α; [5]): 4.49±2.86 | signs of photosensitivity or damage of the mucosa ([2]; any of the animals): No signs of photosensitivity or damage of the mucosa was observed | endoscopic severity index after PDT ([2]; mice that could be followed up by colonoscopy): improved significantly | mice cured by PDT [2, 6]: 2 mice | mice with improved clinical signs after PDT [2, 6]: one | mice without clinical response ([2]; one of the 4 mice which developed signs of severe disease): 25% | expression index IFN-γ (IFN-γ; [3]): 5.36±1.67 | expression index IFN-γ (IFN-γ; [4]): 0.93±0.09 | expression index IFN-γ (IFN-γ; [5]): 1.92±0.50
